Values of other authors as cited in patent publication US20110223244A1, “ALCOHOL RESISTANT ENTERIC PHARMACEUTICAL COMPOSITIONS” (priority 2010, published 2011).
Structures can show the parent of a compound that is named as a salt.

Details: yields 1-(2-thienyl)carbinol, naphthol and substituted naphthols

CNCC[C@H](Oc1cccc2ccccc12)c1cccs1 [duloxetine HCl]
stability in aqueous HCl: rapidly undergoes solvolysis and rearrangement
